Experimental findings from PubChem BioAssay (NCI) are described below.

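A five-concentration, 48-hour dose response in 96-well plates underlies each endpoint, interpolated linearly between surrounding concentrations. GI50 is the concentration that inhibits growth by half. At the TGI there is no net growth.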

Among the test systems are SK-OV-3 ovarian; UACC-257 melanoma; K-562 leukemia; TK-10 renal; UACC-62 melanoma; NCI/ADR-RES ovarian; HT29 colon; MALME-3M melanoma; A549 NSCLC; OVCAR-4 ovarian.
What all share (assay): inhibition of tumour cell growth, NCI panel, 48 h

Turning to `Nc1nc2ccc(CNc3ccc(C(=O)NC(CC(=O)O)C(=O)O)cc3)cc2c(=O)[nH]1` (centres undefined), the GI50 in the experiment with SK-OV-3 ovarian was over 29.1 µM; in the experiment on UACC-257 melanoma, over 100 µM; in the experiment with K-562 leukemia, 0.437 µM; in the experiment with TK-10 renal, over 100 µM; in the experiment with UACC-62 melanoma, 5.89 µM; in the experiment with NCI/ADR-RES ovarian, 2.71 µM. The GI50 in the experiment with HT29 colon is 0.67 µM; with MALME-3M melanoma it was over 33.3 µM; in the experiment on A549 NSCLC, 0.549 µM; in the experiment on OVCAR-4 ovarian, over 100 µM. The TGI in the experiment on SK-OV-3 ovarian, in the experiment with UACC-257 melanoma, with K-562 leukemia, in the experiment on TK-10 renal, with UACC-62 melanoma and in the experiment on NCI/ADR-RES ovarian was over 100 µM each time. Also, the TGI in the experiment on HT29 colon, with MALME-3M melanoma and in the experiment with OVCAR-4 ovarian was over 100 µM in each case.
As for `C[n+]1cccc(NC(=O)c2ccc3ccc4ccc(C(=O)Nc5ccc[n+](C)c5)nc4c3n2)c1`, the GI50 is 1.97 µM in the experiment with SK-OV-3 ovarian; over 100 µM with UACC-257 melanoma; 2.4 µM with K-562 leukemia; 53.7 µM in the experiment on TK-10 renal; 0.357 µM in the experiment on UACC-62 melanoma; over 100 µM in the experiment on NCI/ADR-RES ovarian. Further, the GI50 was 2.38 µM with HT29 colon, over 89.1 µM in the experiment with MALME-3M melanoma, 0.155 µM in the experiment on A549 NSCLC and 7.37 µM with OVCAR-4 ovarian. In addition, the TGI with SK-OV-3 ovarian was 12.5 µM; with UACC-257 melanoma it was over 100 µM; in the experiment on K-562 leukemia it was over 100 µM; with TK-10 renal, over 100 µM; in the experiment on UACC-62 melanoma, 2.05 µM; with NCI/ADR-RES ovarian it was over 100 µM. Moreover, the TGI in the experiment with HT29 colon, in the experiment on MALME-3M melanoma, in the experiment on A549 NSCLC and in the experiment with OVCAR-4 ovarian was over 100 µM each time.
Take `COc1cccc2nc(Nc3cccc(NC(=O)c4ccc(N5CCN(C)CC5)c(C(F)(F)F)c4)c3)ccc12`: the GI50 with SK-OV-3 ovarian was 1.73 µM; in the experiment on UACC-257 melanoma it was 1.36 µM; with K-562 leukemia, 1.1 µM; with TK-10 renal it was 2.01 µM; with UACC-62 melanoma, 1.06 µM; in the experiment with NCI/ADR-RES ovarian, 1.5 µM. For the same molecule, the GI50 was 0.712 µM in the experiment on HT29 colon, 0.816 µM in the experiment with MALME-3M melanoma, 1.43 µM in the experiment on A549 NSCLC and 1.43 µM in the experiment on OVCAR-4 ovarian. The TGI was 6.11 µM with SK-OV-3 ovarian; 3.51 µM with UACC-257 melanoma; 3.68 µM in the experiment with K-562 leukemia; 6.62 µM in the experiment on TK-10 renal; 2.28 µM in the experiment on UACC-62 melanoma; 4.95 µM with NCI/ADR-RES ovarian. For the same molecule, the TGI in the experiment on HT29 colon was 1.61 µM; in the experiment on MALME-3M melanoma it was 1.62 µM; in the experiment with A549 NSCLC, 5.03 µM; in the experiment on OVCAR-4 ovarian it was 6.67 µM.
For `Cc1[nH]c(C(=O)Nc2cccc(OC3CCNCC3)c2)c(Cl)c1Cl`, the GI50 is 2.07 µM with SK-OV-3 ovarian; 1.76 µM in the experiment with UACC-257 melanoma; 1.76 µM with K-562 leukemia; 1.94 µM in the experiment with TK-10 renal; 1.81 µM in the experiment on UACC-62 melanoma; 1.84 µM in the experiment with NCI/ADR-RES ovarian. For the same molecule, the GI50 with HT29 colon is 1.92 µM; in the experiment with MALME-3M melanoma it was 1.6 µM; in the experiment with A549 NSCLC, 2.04 µM; in the experiment on OVCAR-4 ovarian, 2.6 µM. Moreover, the TGI came to 5.09 µM in the experiment with SK-OV-3 ovarian; 3.55 µM with UACC-257 melanoma; 4.53 µM with K-562 leukemia; 3.7 µM in the experiment with TK-10 renal; 3.45 µM in the experiment with UACC-62 melanoma; 3.47 µM in the experiment on NCI/ADR-RES ovarian. Besides, the TGI in the experiment with HT29 colon stood at 4.44 µM; in the experiment with MALME-3M melanoma it was 3.22 µM; with A549 NSCLC, 4.17 µM; with OVCAR-4 ovarian it was 6.76 µM.
With `C=C(C(=O)c1ccccc1)C(NC(C)(C)C)c1ccccc1` (centres undefined), the GI50 was 3.76 µM in the experiment with SK-OV-3 ovarian; 1.69 µM with UACC-257 melanoma; 1.91 µM in the experiment with K-562 leukemia; 1.02 µM in the experiment on TK-10 renal; 1.54 µM in the experiment on UACC-62 melanoma; 2.63 µM in the experiment on NCI/ADR-RES ovarian. In addition, the GI50 with HT29 colon was 1 µM; in the experiment on MALME-3M melanoma it was 1.91 µM; with A549 NSCLC it was 2.74 µM; in the experiment with OVCAR-4 ovarian, 4.72 µM. In addition, the TGI was found to be 20.1 µM in the experiment with SK-OV-3 ovarian; 4.81 µM with UACC-257 melanoma; 11.5 µM in the experiment on K-562 leukemia; 2.25 µM in the experiment on TK-10 renal; 4.02 µM with UACC-62 melanoma; 12.4 µM in the experiment with NCI/ADR-RES ovarian. Also, the TGI in the experiment on HT29 colon is 3.13 µM; in the experiment with MALME-3M melanoma, 4.33 µM; in the experiment with A549 NSCLC, 7.79 µM; in the experiment with OVCAR-4 ovarian, 17.1 µM.
With `CCCCCCCCCN=C(N)c1ccc(N2CCN(c3ccc(C(N)=NCCCCCCCCC)cc3)CC2)cc1`, the GI50 with SK-OV-3 ovarian is 2.65 µM; in the experiment with UACC-257 melanoma, 1.2 µM; in the experiment on K-562 leukemia, 1.72 µM; in the experiment with TK-10 renal, 4.3 µM; in the experiment with UACC-62 melanoma, 2.45 µM; in the experiment with NCI/ADR-RES ovarian, 3.56 µM. Moreover, the GI50 in the experiment on HT29 colon is 1.3 µM; with MALME-3M melanoma, 1.37 µM; with A549 NSCLC it was 1.57 µM; in the experiment with OVCAR-4 ovarian, 3.86 µM. Besides, the TGI in the experiment on SK-OV-3 ovarian was 33.1 µM; in the experiment on UACC-257 melanoma it was 3.08 µM; with K-562 leukemia, 17 µM; in the experiment with TK-10 renal, 14.7 µM; in the experiment on UACC-62 melanoma, 22.1 µM; with NCI/ADR-RES ovarian, over 50 µM. Also, the TGI with HT29 colon is 7.4 µM; in the experiment on MALME-3M melanoma it was 3.74 µM; with A549 NSCLC, 10.5 µM; with OVCAR-4 ovarian, over 50 µM.
